Source: US12522602B2, “Derivatives having 2,3-dihydro-1H-indene or 2,3-dihydrobenzofuran moiety or pharmaceutically acceptable salt thereof and pharmaceutical compositions comprising the same” (YUHAN CORPORATION, priority 2019, dated 2026)

Test system: GM1 production in Jurkat cells
Experiment: cells
Format: cell-based
Settings: Homo sapiens, Jurkat, 72 h

SMILES: CC1(C)Cc2cc(-c3cc(F)cc(F)c3)ccc2C1NC(=O)O[C@@H]1CN2CCC1CC2 (stereo partly drawn) [Example 90, (S)-quinuclidin-3-yl (5-(3,5-difluorophenyl)-2,2-dimethyl-2,3-dihydro-1H-inden-1-yl)carbamate]
- IC50: 37.9 nM

SMILES: CC1(C)Cc2cc(-c3cccc(F)c3F)ccc2C1NC(=O)O[C@@H]1CN2CCC1CC2 (stereo partly drawn) [Example 91, (S)-quinuclidin-3-yl (5-(2,3-difluorophenyl)-2,2-dimethyl-2,3-dihydro-1H-inden-1-yl)carbamate]
- IC50: 25.1 nM

SMILES: CC1(C)Cc2cc(-c3ccc(Cl)c(Cl)c3)ccc2C1NC(=O)O[C@@H]1CN2CCC1CC2 (stereo partly drawn) [Example 92, (S)-quinuclidin-3-yl (5-(3,4-dichlorophenyl)-2,2-dimethyl-2,3-dihydro-1H-inden-1-yl)carbamate]
- IC50: 43.9 nM

SMILES: CC1(C)Cc2cc(-c3cc(Cl)ccc3Cl)ccc2C1NC(=O)O[C@@H]1CN2CCC1CC2 (stereo partly drawn) [Example 93, (S)-quinuclidin-3-yl (5-(2,5-dichlorophenyl)-2,2-dimethyl-2,3-dihydro-1H-inden-1-yl)carbamate]
- IC50: 10.5 nM

SMILES: CC1(C)Cc2cc(-c3cc(Cl)cc(Cl)c3)ccc2C1NC(=O)O[C@@H]1CN2CCC1CC2 (stereo partly drawn) [Example 94, (S)-quinuclidin-3-yl (5-(3,5-dichlorophenyl)-2,2-dimethyl-2,3-dihydro-1H-inden-1-yl)carbamate]
- IC50: 23.6 nM

SMILES: CC1(C)Cc2cc(-c3ccc(F)c(F)c3F)ccc2C1NC(=O)O[C@@H]1CN2CCC1CC2 (stereo partly drawn) [Example 95, (S)-quinuclidin-3-yl (2,2-dimethyl-5-(2,3,4-trifluorophenyl)-2,3-dihydro-1H-inden-1-yl)carbamate]
- IC50: 49.7 nM

SMILES: CC1(C)Cc2cc(-c3cc(F)c(F)cc3F)ccc2C1NC(=O)O[C@@H]1CN2CCC1CC2 (stereo partly drawn) [Example 96, (S)-quinuclidin-3-yl (2,2-dimethyl-5-(2,4,5-trifluorophenyl)-2,3-dihydro-1H-inden-1-yl)carbamate]
- IC50: 16.2 nM

SMILES: COCCOc1ccc(-c2ccc3c(c2)CC(C)(C)C3NC(=O)O[C@@H]2CN3CCC2CC3)cc1 (stereo partly drawn) [Example 97, (S)-quinuclidin-3-yl (5-(4-(2-methoxyethoxy)phenyl)-2,2-dimethyl-2,3-dihydro-1H-inden-1-yl)carbamate]
- IC50: 9.3 nM

SMILES: COCCOc1cccc(-c2ccc3c(c2)CC(C)(C)C3NC(=O)O[C@@H]2CN3CCC2CC3)c1 (stereo partly drawn) [Example 98, (S)-quinuclidin-3-yl (5-(3-(2-methoxyethoxy)phenyl)-2,2-dimethyl-2,3-dihydro-1H-inden-1-yl)carbamate]
- IC50: 7.5 nM

SMILES: COCCOc1ccccc1-c1ccc2c(c1)CC(C)(C)C2NC(=O)O[C@@H]1CN2CCC1CC2 (stereo partly drawn) [Example 99, (S)-quinuclidin-3-yl (5-(2-(2-methoxyethoxy)phenyl)-2,2-dimethyl-2,3-dihydro-1H-inden-1-yl)carbamate]
- IC50: 22.2 nM

SMILES: COCOc1ccc(-c2ccc3c(c2)CC(C)(C)C3NC(=O)O[C@@H]2CN3CCC2CC3)cc1 (stereo partly drawn) [Example 100, (S)-quinuclidin-3-yl (5-(4-(methoxymethoxy)phenyl)-2,2-dimethyl-2,3-dihydro-1H-inden-1-yl)carbamate]
- IC50: 21.5 nM

SMILES: COCOc1cccc(-c2ccc3c(c2)CC(C)(C)C3NC(=O)O[C@@H]2CN3CCC2CC3)c1 (stereo partly drawn) [Example 101, (S)-quinuclidin-3-yl (5-(3-(methoxymethoxy)phenyl)-2,2-dimethyl-2,3-dihydro-1H-inden-1-yl)carbamate]
- IC50: 8.7 nM

SMILES: COCOc1ccccc1-c1ccc2c(c1)CC(C)(C)C2NC(=O)O[C@@H]1CN2CCC1CC2 (stereo partly drawn) [Example 102, (S)-quinuclidin-3-yl (5-(2-(methoxymethoxy)phenyl)-2,2-dimethyl-2,3-dihydro-1H-inden-1-yl)carbamate]
- IC50: 17.4 nM

SMILES: COc1cccc(-c2ccc3c(c2)CC(C)(C)C3NC(=O)O[C@@H]2CN3CCC2CC3)c1 (stereo partly drawn) [Example 103, (S)-quinuclidin-3-yl (5-(3-methoxyphenyl)-2,2-dimethyl-2,3-dihydro-1H-inden-1-yl)carbamate]
- IC50: 19.5 nM

SMILES: CCOc1cccc(-c2ccc3c(c2)CC(C)(C)C3NC(=O)O[C@@H]2CN3CCC2CC3)c1 (stereo partly drawn) [Example 104, (S)-quinuclidin-3-yl (5-(3-ethoxyphenyl)-2,2-dimethyl-2,3-dihydro-1H-inden-1-yl)carbamate]
- IC50: 16.9 nM

SMILES: CC(C)Oc1cccc(-c2ccc3c(c2)CC(C)(C)C3NC(=O)O[C@@H]2CN3CCC2CC3)c1 (stereo partly drawn) [Example 105, (S)-quinuclidin-3-yl (5-(3-isopropoxyphenyl)-2,2-dimethyl-2,3-dihydro-1H-inden-1-yl)carbamate]
- IC50: 15.2 nM

SMILES: CN(C)c1cccc(-c2ccc3c(c2)CC(C)(C)C3NC(=O)O[C@@H]2CN3CCC2CC3)c1 (stereo partly drawn) [Example 106, (S)-quinuclidin-3-yl (5-(3-(dimethylamino)phenyl)-2,2-dimethyl-2,3-dihydro-1H-inden-1-yl)carbamate]
- IC50: 5.8 nM

SMILES: CSc1cccc(-c2ccc3c(c2)CC(C)(C)C3NC(=O)O[C@@H]2CN3CCC2CC3)c1 (stereo partly drawn) [Example 107, (S)-quinuclidin-3-yl (2,2-dimethyl-5-(3-(methylthio)phenyl)-2,3-dihydro-1H-inden-1-yl)carbamate]
- IC50: 6.3 nM

SMILES: CCc1cccc(-c2ccc3c(c2)CC(C)(C)C3NC(=O)O[C@@H]2CN3CCC2CC3)c1 (stereo partly drawn) [Example 108, (S)-quinuclidin-3-yl (5-(3-ethylphenyl)-2,2-dimethyl-2,3-dihydro-1H-inden-1-yl)carbamate]
- IC50: 7.6 nM

SMILES: CC(C)c1cccc(-c2ccc3c(c2)CC(C)(C)C3NC(=O)O[C@@H]2CN3CCC2CC3)c1 (stereo partly drawn) [Example 109, (S)-quinuclidin-3-yl (5-(3-isopropylphenyl)-2,2-dimethyl-2,3-dihydro-1H-inden-1-yl)carbamate]
- IC50: 7.8 nM

SMILES: CC(C)(C)c1cccc(-c2ccc3c(c2)CC(C)(C)C3NC(=O)O[C@@H]2CN3CCC2CC3)c1 (stereo partly drawn) [Example 110, (S)-quinuclidin-3-yl (5-(3-(tert-butyl)phenyl)-2,2-dimethyl-2,3-dihydro-1H-inden-1-yl)carbamate]
- IC50: 15.1 nM

SMILES: CC1(C)Cc2cc(-c3ccc4c(c3)OC(F)(F)O4)ccc2C1NC(=O)O[C@@H]1CN2CCC1CC2 (stereo partly drawn) [Example 111, (S)-quinuclidin-3-yl (5-(2,2-difluorobenzo[d][1,3]dioxol-5-yl)-2,2-dimethyl-2,3-dihydro-1H-inden-1-yl)carbamate]
- IC50: 32 nM

SMILES: CC1(C)Cc2cc(-c3ccc4c(c3)OCCO4)ccc2C1NC(=O)O[C@@H]1CN2CCC1CC2 (stereo partly drawn) [Example 112, (S)-quinuclidin-3-yl (5-(2,3-dihydrobenzo[b][1,4]dioxin-6-yl)-2,2-dimethyl-2,3-dihydro-1H-inden-1-yl)carbamate]
- IC50: 35.6 nM

SMILES: CC1(C)Cc2cc(-c3ccc4c(c3)CCO4)ccc2C1NC(=O)O[C@@H]1CN2CCC1CC2 (stereo partly drawn) [Example 113, (S)-quinuclidin-3-yl (5-(2,3-dihydrobenzofuran-5-yl)-2,2-dimethyl-2,3-dihydro-1H-inden-1-yl)carbamate]
- IC50: 54.8 nM

SMILES: CC1(C)Cc2cc(-c3cccc(OCCN4CCOCC4)c3)ccc2C1NC(=O)O[C@@H]1CN2CCC1CC2 (stereo partly drawn) [Example 114, (S)-quinuclidin-3-yl (2,2-dimethyl-5-(3-(2-morpholinoethoxy)phenyl)-2,3-dihydro-1H-inden-1-yl)carbamate]
- IC50: 33.7 nM

SMILES: CC1(C)Cc2cc(-c3ccc(OCCF)cc3)ccc2C1NC(=O)O[C@@H]1CN2CCC1CC2 (stereo partly drawn) [Example 115, (S)-quinuclidin-3-yl (5-(4-(2-fluoroethoxy)phenyl)-2,2-dimethyl-2,3-dihydro-1H-inden-1-yl)carbamate]
- IC50: 38.3 nM

SMILES: CC1(C)Cc2cc(-c3ccc(OCC(F)(F)F)cc3)ccc2C1NC(=O)O[C@@H]1CN2CCC1CC2 (stereo partly drawn) [Example 116, (S)-quinuclidin-3-yl (2,2-dimethyl-5-(4-(2,2,2-trifluoroethoxy)phenyl)-2,3-dihydro-1H-inden-1-yl)carbamate]
- IC50: 16.7 nM

SMILES: CC1(C)Cc2cc(-c3ccc(OCCN4CCOCC4)cc3)ccc2C1NC(=O)O[C@@H]1CN2CCC1CC2 (stereo partly drawn) [Example 117, (S)-quinuclidin-3-yl (2,2-dimethyl-5-(4-(2-morpholinoethoxy)phenyl)-2,3-dihydro-1H-inden-1-yl)carbamate]
- IC50: 41.8 nM

SMILES: CC1(C)Cc2cc(-c3ccnc(C(F)(F)F)c3)ccc2C1NC(=O)O[C@@H]1CN2CCC1CC2 (stereo partly drawn) [Example 118, (S)-quinuclidin-3-yl (2,2-dimethyl-5-(2-(trifluoromethyl)pyridin-4-yl)-2,3-dihydro-1H-inden-1-yl)carbamate]
- IC50: 38.4 nM

SMILES: CC1(C)Cc2cc(-c3cc(Cl)ncc3Cl)ccc2C1NC(=O)O[C@@H]1CN2CCC1CC2 (stereo partly drawn) [Example 119, (S)-quinuclidin-3-yl (5-(2,5-dichloropyridin-4-yl)-2,2-dimethyl-2,3-dihydro-1H-inden-1-yl)carbamate]
- IC50: 38.3 nM

SMILES: CN1CCOc2cc(-c3ccc4c(c3)CC(C)(C)C4NC(=O)O[C@@H]3CN4CCC3CC4)ccc21 (stereo partly drawn) [Example 120, (S)-quinuclidin-3-yl (2,2-dimethyl-5-(4-methyl-3,4-dihydro-2H-benzo[b][1,4]oxazin-7-yl)-2,3-dihydro-1H-inden-1-yl)carbamate]
- IC50: 28.4 nM

SMILES: COc1ccc(Cl)c(-c2ccc3c(c2)CC(C)(C)C3NC(=O)O[C@@H]2CN3CCC2CC3)c1 (stereo partly drawn) [Example 121, (S)-quinuclidin-3-yl (5-(2-chloro-5-methoxyphenyl)-2,2-dimethyl-2,3-dihydro-1H-inden-1-yl)carbamate]
- IC50: 4.7 nM

SMILES: COc1ccc(-c2ccc3c(c2)CC(C)(C)C3NC(=O)O[C@@H]2CN3CCC2CC3)cc1Cl (stereo partly drawn) [Example 122, (S)-quinuclidin-3-yl (5-(3-chloro-4-methoxyphenyl)-2,2-dimethyl-2,3-dihydro-1H-inden-1-yl)carbamate]
- IC50: 50.8 nM

SMILES: COc1ccc(-c2ccc3c(c2)CC(C)(C)C3NC(=O)O[C@@H]2CN3CCC2CC3)c(Cl)c1 (stereo partly drawn) [Example 123, (S)-quinuclidin-3-yl (5-(2-chloro-4-methoxyphenyl)-2,2-dimethyl-2,3-dihydro-1H-inden-1-yl)carbamate]
- IC50: 9.3 nM

SMILES: COc1cccc(-c2ccc3c(c2)CC(C)(C)C3NC(=O)O[C@@H]2CN3CCC2CC3)c1Cl (stereo partly drawn) [Example 124, (S)-quinuclidin-3-yl (5-(2-chloro-3-methoxyphenyl)-2,2-dimethyl-2,3-dihydro-1H-inden-1-yl)carbamate]
- IC50: 22.3 nM
